Measurements reported in patent publication US9745274B2, “Compound, organic cation transporter 3 detection agent, and organic cation transporter 3 activity inhibitor” (SHIN NIPPON BIOMEDICAL LABORATORIES, LTD., priority 2013, dated 2017).

What was measured:
[1] = target: T1, human organic cation transporter 3 (hOCT3) (Homo sapiens, UniProt O75751); experiment: Histamine incorporation experiment in HEK293 cells expressing hOCT3 (OCT3 inhibition activity); assay type: cell-based; settings: for OCT3 Inhibition Rate (%): Tables 3-1 to 3-15, in a manner similar to Example 12 (30 μM there), concentration not given in the tables; for remaining activity at 30 µM / remaining activity at 10 µM: HEK293, 1 min, no inhibitor = 100%, read-out: Histamine Incorporation Rate to Control (%); for remaining activity at 30 µM / inhibition at 30 µM: Compound Concentration 30 μM; for remaining activity at 30 µM: [3H]histamine 100 nM, 1 minute; for inhibition at 30 µM / inhibition at 10 µM: HEK293, 100% minus histamine incorporation rate; for remaining activity at 10 µM / inhibition at 10 µM: Compound Concentration 10 μM
T1 construct: expressed in transfected cells; host or cells: HEK293
T1 sequence (O75751 1-556): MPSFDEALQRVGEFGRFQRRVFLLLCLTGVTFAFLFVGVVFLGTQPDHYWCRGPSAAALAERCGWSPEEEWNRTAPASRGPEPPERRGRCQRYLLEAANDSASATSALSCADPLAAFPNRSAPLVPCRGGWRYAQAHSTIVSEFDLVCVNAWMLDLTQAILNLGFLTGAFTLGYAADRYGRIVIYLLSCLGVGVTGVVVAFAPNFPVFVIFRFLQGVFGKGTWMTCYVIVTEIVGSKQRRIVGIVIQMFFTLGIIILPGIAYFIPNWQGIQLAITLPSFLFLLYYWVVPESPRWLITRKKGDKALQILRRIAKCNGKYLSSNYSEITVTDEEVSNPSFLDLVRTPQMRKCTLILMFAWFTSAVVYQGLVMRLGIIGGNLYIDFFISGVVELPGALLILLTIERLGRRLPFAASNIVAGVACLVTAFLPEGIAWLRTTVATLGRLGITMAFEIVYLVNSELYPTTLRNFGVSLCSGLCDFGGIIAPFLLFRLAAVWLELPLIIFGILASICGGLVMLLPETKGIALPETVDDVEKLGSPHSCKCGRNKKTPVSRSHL
Description: In order to measure an activity that inhibits OCT3 from incorporating a substrate (OCT3 inhibition activity) for each compound, histamine incorporation experiments as described below were performed.
Histamine incorporation experiments were performed in accordance with a method disclosed in Br J Pharmacol. 2002; 136(6): 829-836. In the experiments, HEK293 cells were used. The HEK293 cell is a human embryonal renal cell strain expressing human organic cation transporter 3 (hOCT3). The HEK 293 cells were inoculated onto 24-well plates at 1.5×10^5 cells/well, and were cultivated overnight in a carbon dioxide incubator. Test substances were dissolved in 100% DMSO solution and then dissolved in HBSS-HEPES solution (buffer solution prepared by dissolving 9.7 g Hank's Balanced Salt, 1.4% sodium bicarbonate 25 mL, and 1M HEPES 25 mL in 940 mL ultra pure water, and by adjusting to pH7.4 with 1M sodium hydroxide). After removing culture media for cell culture, pretreatment was performed for 5 minutes with 1 mL HBSS-HEPES solution. Then, the test substance and [3H]histamine (final concentration 100 nM) were added to the cells and reacted for 1 minute at room temperature. After the reaction was completed, the reaction was stopped by ice-cooled HBSS-HEPES solution, extracellular fluid was aspirated by an aspirator, and then the cells were washed twice with HBSS-HEPES. After washing, the cells were dissolved in 0.5M sodium hydroxide solution. The amount of histamine in the cells was found by measuring a radioactivity in a cell lysis solution by a liquid scintillation counter. Protein content in the cells was measured by Lowry method (J Biol Chem. 1951; 193(1): 265-75) by using the cell lysis solution, and translated into histamine incorporation amount per protein content for each experiment. A histamine incorporation rate (%) in the presence of 30 μM of the test substance was calculated by regarding a histamine incorporation amount in a case of no incorporation inhibitor as 100% (control) of histamine incorporation rate. A value (%) obtained by subtracting the histamine incorporation rate from 100(%) was calculated as an OCT3 inhibition rate (%).
Note that a histamine incorporation rate (%) in the presence of 10 μM of the test substance was calculated by regarding a histamine incorporation amount in a case of no incorporation inhibitor as 100% (control) of histamine incorporation rate. A value (%) obtained by subtracting the histamine incorporation rate from 100(%) was calculated as an OCT3 inhibition rate (%). […]

[2] = target: T1, human organic cation transporter 3 (hOCT3); experiment: as above; assay type: cell-based; settings: control curve; for IC80: HEK293

Compound	OCT3 Inhibition Rate (%) [1]	other results
CNC(=O)CCCCc1csc(N=C(N)N)n1 [SR-2075]	23.9%	
N#C/N=C(\N)NCCCCc1csc(N=C(N)N)n1 [SR-2069]		remaining activity at 30 µM [1]: 48.6%; inhibition at 30 µM [1]: 51.4%
NC(N)=Nc1nc(COCc2ccc(F)cc2)cs1 [SR-3129]	20.6%	
NC(N)=Nc1nc(CSCCC(=O)NC(=O)c2ccccc2)cs1 [SR-2226]	21.8%	
CNCCCCc1csc(N=C(N)N)n1 [SR-2204]	3.4%	
CN(C)c1nc(CSCC/C(N)=N/S(=O)(=O)C(F)(F)F)cs1 [SR-2005]	−7.8%	
Cc1nc(CCCOc2cc(N=C(N)N)ccn2)[nH]c(=O)c1CCc1ccccc1 [SR-2064]	17.5%	
NC(N)=Nc1cc(CSCCC(N)=NS(N)(=O)=O)ccn1 [SR-2229]		remaining activity at 30 µM [1]: 55.8%; inhibition at 30 µM [1]: 44.2%
NC(N)=Nc1nc(CS/C(N)=N/S(=O)(=O)C(F)(F)F)cs1 [SR-3159]	6.2%	
NC(N)=Nc1cc(CSCC/C(N)=N/S(=O)(=O)C(F)(F)F)ccn1 [SR-2023]		IC80 [2]: 28 µM; IC50 [2]: 6.5 µM; remaining activity at 10 µM [1]: 36.7%; remaining activity at 30 µM [1]: 15%; inhibition at 10 µM [1]: 63.3%; inhibition at 30 µM [1]: 85%
NC(CCSCc1cscn1)=NS(=O)(=O)C(F)(F)F [SR-3002]	−0.2%	
NC(N)=Nc1nc(CSCCc2ncc(CCc3ccccc3)o2)cs1 [SR-2051]	38.8%	
CC(C)c1nc(CSCCC(N)=NS(=O)(=O)C(F)(F)F)cs1 [SR-3021]	−4.0%	
N=C(N)CCCCc1csc(N=C(N)N)n1 [SR-2068, 5-[2-(diaminomethyleneamino)thiazole-4-yl]pentaimideamide]	28.5%	
N=C(N)CCSCc1ccc([N+](=O)[O-])o1 [SR-2233]	4.7%	
NC(N)=Nc1nc(CS/C(N)=N\S(N)(=O)=O)cs1 [SR-3155]	−10.3%	
CSc1nc(CSCCC(N)=NS(=O)(=O)C(F)(F)F)cs1 [SR-3012]	−8.1%	
NC(N)=Nc1nc(CCCCNC(=O)CO)cs1 [SR-2073]		remaining activity at 30 µM [1]: 52.9%; inhibition at 30 µM [1]: 47.1%
Cc1nc(CSCCc2nc(=O)c(CCc3ccccc3)c(C)[nH]2)cs1 [SR-2239]	33.2%	
NC(N)=Nc1nc(CSCCc2ccc(F)cc2)cs1 [SR-3137]	33.3%	
CN/C(=C\[N+](=O)[O-])NCCSCc1csc(N=C(N)N)n1 [SR-2044]	7.9%	
N=C(N)CCSCc1csc(N=C2NCCN2)n1 [SR-3208]	8.7%	
Cc1nc(CCSCc2cccc(N=C(N)N)n2)[nH]c(=O)c1CCc1ccccc1 [SR-2036]		IC80 [2]: 27 µM; IC50 [2]: 5.9 µM; remaining activity at 10 µM [1]: 33.7%; remaining activity at 30 µM [1]: 15.4%; inhibition at 10 µM [1]: 66.3%; inhibition at 30 µM [1]: 84.6%
NC(N)=Nc1nc(CSCCC(N)=NS(=O)(=O)C(F)(F)F)cs1 [SR-2216]	61.5%	
CC(C)c1nc(CSCCC(N)=NS(N)(=O)=O)cs1 [SR-2207, (Z)-3-((2-isopropylthiazol-4-yl)methylthio)-N′-sulfamoylpropanimidamide]	6.7%	

Compound	OCT3 Inhibition Rate (%) [1]	other results
CSc1nc(CSCCC(N)=NS(N)(=O)=O)cs1 [SR-2227]	13.8%	
Cc1nc(CCSCc2ccc([N+](=O)[O-])n2Cc2ccccc2)[nH]c(=O)c1CCc1ccccc1 [SR-2235]	8.7%	
NC(N)=Nc1cccc(CSCC/C(N)=N/S(=O)(=O)C(F)(F)F)c1 [SR-2020]	25.4%	
N=C(NCc1csc(N=C(N)N)n1)NS(N)(=O)=O [SR-3154]	−11.5%	
Cc1nc(CCSCc2csc(N=C3NCCN3)n2)[nH]c(=O)c1CCc1ccccc1 [SR-2213]	45.8%	
NC(N)=Nc1nc(CSCCNC(=O)CO)cs1 [SR-2045]		IC80 [2]: 56 µM; IC50 [2]: 12.4 µM; remaining activity at 10 µM [1]: 56.6%; remaining activity at 30 µM [1]: 35.2%; inhibition at 10 µM [1]: 43.4%; inhibition at 30 µM [1]: 64.8%
NC(N)=Nc1nc(CNCCc2ccc(F)cc2)cs1 [SR-3136]	28.6%	
NC(N)=Nc1ncc(CSCCC(N)=NS(=O)(=O)c2ccccc2)s1 [SR-3203]	22.2%	
NC(N)=Nc1nc(CCCC/C(N)=N/S(=O)(=O)C(F)(F)F)cs1 [SR-2065]		IC80 [2]: 90 µM; IC50 [2]: 24 µM; remaining activity at 10 µM [1]: 72.9%; remaining activity at 30 µM [1]: 41.5%; inhibition at 10 µM [1]: 27.1%; inhibition at 30 µM [1]: 58.5%
Cc1nc(CCSCc2csc(N(C)C)n2)[nH]c(=O)c1CCc1ccccc1 [SR-2011]	37.9%	
N=C(N)CCSCc1ccc([N+](=O)[O-])n1Cc1ccccc1 [SR-2234]	50.2%	
N=C(N)NCCCCc1csc(N=C(N)N)n1 [SR-2071]	27.0%	
NC(N)=Nc1cccc(CSCCC(N)=NS(N)(=O)=O)n1 [SR-2230]		remaining activity at 30 µM [1]: 41.4%; inhibition at 30 µM [1]: 58.6%
N=C(N)NCc1csc(N=C(N)N)n1 [SR-2236]	−1.4%	
CNC(=O)CCSCc1csc(N=C(N)N)n1 [SR-2203]	16.3%	
CCCCN/C(N)=N/c1nc(CSCCC(=N)N)cs1 [SR-3209]	43.0%	
Cc1nc(CSCC/C(N)=N/S(=O)(=O)C(F)(F)F)cs1 [SR-2238]	−7.4%	
CC(=O)NC(=O)CCSCc1csc(N=C(N)N)n1 [SR-2225]	30.4%	
NC(N)=Nc1nc(CCCc2ccc(F)cc2)cs1 [SR-3131]	22.3%	
NC(N)=Nc1nc(CCCC/C(N)=N/S(N)(=O)=O)cs1 [SR-2066]		remaining activity at 30 µM [1]: 58.1%; inhibition at 30 µM [1]: 41.9%
Cc1nc(CSCC/C(N)=N/S(N)(=O)=O)cs1 [SR-2228]	17.6%	
NC(CCSCc1cscn1)=NS(N)(=O)=O [SR-3001]	−14.7%	
NC(N)=Nc1nc(CSc2ccc(F)cc2)cs1 [SR-3123]	47.2%	
Cc1[nH]c(CCSCc2cscn2)nc(=O)c1CCc1ccccc1 [SR-3003]	40.6%	
